The source of these data is ChEMBL document CHEMBL1151538, “Rearrangement of unsymmetrical azetidinone disulfides to 2-(heterocyclylthiomethyl)penams, a synthetic approach to new -lactamase inhibitors” (Bioorg Med Chem Lett, 1993).

The target of one assay is T1, Beta-lactamase BRO-1 (Moraxella catarrhalis, UniProt Q59514).
T1 sequence (Q59514 whole entry): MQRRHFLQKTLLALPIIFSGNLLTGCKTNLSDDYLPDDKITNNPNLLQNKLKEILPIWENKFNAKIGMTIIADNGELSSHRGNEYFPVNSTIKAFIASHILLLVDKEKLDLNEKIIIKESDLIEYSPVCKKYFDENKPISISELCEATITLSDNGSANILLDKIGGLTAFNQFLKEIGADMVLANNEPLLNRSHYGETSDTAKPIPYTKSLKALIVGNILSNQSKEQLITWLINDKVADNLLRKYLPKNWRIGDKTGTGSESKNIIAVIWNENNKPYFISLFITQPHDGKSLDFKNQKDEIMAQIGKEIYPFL
Briefly: Inhibitory activity against Branhamella catarrhalis 89001 Class-III BRO-1 type beta-lactamase enzyme. Also on record: species or system b.catarr.

For another assay, the target named is T2, Beta-lactamase SHV-1 (Escherichia coli, UniProt P0AD63).
T2 sequence (P0AD63 whole entry): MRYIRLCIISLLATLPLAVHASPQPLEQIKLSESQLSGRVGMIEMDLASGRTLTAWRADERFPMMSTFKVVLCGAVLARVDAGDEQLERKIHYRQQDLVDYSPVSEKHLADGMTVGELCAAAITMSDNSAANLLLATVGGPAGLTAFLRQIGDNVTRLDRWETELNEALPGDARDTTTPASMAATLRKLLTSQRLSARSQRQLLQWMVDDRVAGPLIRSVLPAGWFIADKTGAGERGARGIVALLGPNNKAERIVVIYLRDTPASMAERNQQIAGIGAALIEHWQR
Briefly: Inhibitory activity against Escherichia coli HA208 Class-III SHV-1 type beta-lactamase enzyme.

For the next assay, the target named is Beta-lactamase OXA-1 (Escherichia coli, UniProt P13661). Description: Inhibitory activity against Escherichia coli HA209 Class-V OXA-1 type beta-lactamase enzyme.
Chain of Beta-lactamase OXA-1 (P13661 whole entry): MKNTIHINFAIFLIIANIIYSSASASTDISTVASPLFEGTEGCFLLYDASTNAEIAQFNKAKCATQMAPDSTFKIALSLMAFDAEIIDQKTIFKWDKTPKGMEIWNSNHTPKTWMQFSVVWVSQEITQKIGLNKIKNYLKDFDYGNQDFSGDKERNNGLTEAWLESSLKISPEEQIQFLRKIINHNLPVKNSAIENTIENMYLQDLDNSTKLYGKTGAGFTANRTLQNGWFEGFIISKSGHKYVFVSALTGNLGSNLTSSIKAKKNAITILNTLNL
The target of the next assay is Beta-lactamase TEM (Escherichia coli, UniProt P62593). Description: Inhibitory activity against Escherichia coli HA58R Class-III TEM-1 type beta-lactamase enzyme.
Chain of Beta-lactamase TEM (P62593 whole entry): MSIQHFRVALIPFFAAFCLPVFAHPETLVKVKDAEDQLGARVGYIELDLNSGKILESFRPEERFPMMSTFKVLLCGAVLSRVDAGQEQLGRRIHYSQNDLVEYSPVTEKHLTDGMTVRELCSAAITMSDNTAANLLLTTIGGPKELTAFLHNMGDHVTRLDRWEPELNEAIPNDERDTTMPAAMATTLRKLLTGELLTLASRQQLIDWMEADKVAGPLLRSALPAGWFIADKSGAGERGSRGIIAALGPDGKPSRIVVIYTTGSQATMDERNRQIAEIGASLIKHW
The target in assay [1] is Beta-lactamase (Staphylococcus aureus, UniProt P00807). Description: Inhibitory activity against Staphylococcus aureus CJ8 beta-lactamase enzyme.
Chain of Beta-lactamase (Staphylococcus aureus, UniProt P00807) (P00807 whole entry): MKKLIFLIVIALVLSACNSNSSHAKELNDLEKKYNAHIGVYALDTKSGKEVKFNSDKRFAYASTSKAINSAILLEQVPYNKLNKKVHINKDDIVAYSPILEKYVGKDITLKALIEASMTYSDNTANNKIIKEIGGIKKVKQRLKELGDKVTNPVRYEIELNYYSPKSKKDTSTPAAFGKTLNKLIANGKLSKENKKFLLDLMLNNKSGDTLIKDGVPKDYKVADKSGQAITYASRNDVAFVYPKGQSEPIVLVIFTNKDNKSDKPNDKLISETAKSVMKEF
Assay [2] has as its target Beta-lactamase (Enterobacter cloacae, UniProt P05364). Briefly: Inhibitory activity against Enterobacter cloacae HC8 Class-I beta-lactamase enzyme type P99.
Assay [3] deals with T3, Beta-lactamase (Klebsiella oxytoca, UniProt Q8RT60).
T3 sequence (Q8RT60 whole entry): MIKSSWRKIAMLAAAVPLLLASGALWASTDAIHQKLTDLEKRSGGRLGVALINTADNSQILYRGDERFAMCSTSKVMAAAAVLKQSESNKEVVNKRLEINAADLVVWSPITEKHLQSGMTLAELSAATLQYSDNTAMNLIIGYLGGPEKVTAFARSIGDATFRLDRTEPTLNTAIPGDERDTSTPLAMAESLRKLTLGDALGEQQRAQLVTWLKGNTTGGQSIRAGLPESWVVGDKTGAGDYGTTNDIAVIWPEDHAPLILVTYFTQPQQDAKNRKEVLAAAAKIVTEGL
Description: Inhibitory activity against Klebsiella oxytoca HC7 Class-IV K1 type beta-lactamase enzyme.

The target of assay [4] is Beta-lactamase (Citrobacter freundii, UniProt P05193). Briefly: Inhibitory activity against Citrobacter freundii 87470 Class-I beta-lactamase enzyme.
Chain of Beta-lactamase (Citrobacter freundii, UniProt P05193) (P05193 whole entry): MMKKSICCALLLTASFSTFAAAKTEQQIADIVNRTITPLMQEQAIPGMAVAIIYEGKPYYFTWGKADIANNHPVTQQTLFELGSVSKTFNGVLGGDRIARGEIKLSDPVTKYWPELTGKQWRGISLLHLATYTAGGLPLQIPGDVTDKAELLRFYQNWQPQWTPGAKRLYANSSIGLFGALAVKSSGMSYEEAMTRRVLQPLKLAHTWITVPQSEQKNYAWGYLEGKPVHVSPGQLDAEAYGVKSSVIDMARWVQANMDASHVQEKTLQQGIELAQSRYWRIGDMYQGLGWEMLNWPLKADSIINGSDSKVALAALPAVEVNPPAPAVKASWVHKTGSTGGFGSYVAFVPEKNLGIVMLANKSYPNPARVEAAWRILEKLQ

Chain of Beta-lactamase (Enterobacter cloacae, UniProt P05364) (P05364 whole entry): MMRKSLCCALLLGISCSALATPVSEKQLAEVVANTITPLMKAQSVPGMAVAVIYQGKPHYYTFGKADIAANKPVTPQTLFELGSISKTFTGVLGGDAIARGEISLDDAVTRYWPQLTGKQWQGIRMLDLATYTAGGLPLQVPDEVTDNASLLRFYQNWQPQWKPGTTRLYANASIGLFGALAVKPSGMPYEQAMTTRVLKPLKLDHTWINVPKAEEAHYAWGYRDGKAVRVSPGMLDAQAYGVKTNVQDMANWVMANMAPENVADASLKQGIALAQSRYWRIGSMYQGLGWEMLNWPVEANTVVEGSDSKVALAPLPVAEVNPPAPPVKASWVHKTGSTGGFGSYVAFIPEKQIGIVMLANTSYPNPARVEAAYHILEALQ

One may read the IC50 as the midpoint of a concentration-inhibition curve. Low values mean greater potency in that assay, high ones weaker potency in that assay. On to `Cn1ccnc1SC[C@@]1(C)[C@H](C(=O)O)N2C(=O)C[C@H]2S1(=O)=O`, for which the IC50 was 2.9 nM on Beta-lactamase BRO-1, 926 nM at Beta-lactamase SHV-1 and 463 nM against Beta-lactamase OXA-1.
For `Cn1nnnc1SC[C@@]1(C)[C@H](C(=O)O)N2C(=O)C[C@H]2S1(=O)=O`, the IC50 at Beta-lactamase BRO-1 was 8.64 nM; on Beta-lactamase SHV-1 it was 72 nM; against Beta-lactamase OXA-1, 92.1 nM; at Beta-lactamase TEM it was 17.3 nM.
For the molecule `C[C@@]1(CSc2nc3ccccc3s2)S[C@@H]2[C@H](Br)C(=O)N2[C@H]1C(=O)O`, the IC50 was 56.1 nM on Beta-lactamase BRO-1, 141 nM against Beta-lactamase SHV-1, 1410 nM against Beta-lactamase OXA-1 and 35.9 nM on Beta-lactamase TEM.
Turning to `C[C@]1(CSc2nc3ccccc3o2)[C@H](C(=O)O)N2C(=O)C[C@H]2S1(=O)=O`, the figures for the 50% inhibitory concentration (IC50) on Beta-lactamase OXA-1 and on Beta-lactamase TEM were 83.7 nM and 10.5 nM, respectively.
With `Cn1nnnc1SC[C@]1(C)S[C@@H]2[C@H](Br)C(=O)N2[C@H]1C(=O)O`, the concentration for half-maximal inhibition (IC50) against Beta-lactamase BRO-1 is 50.7 nM; against Beta-lactamase SHV-1 it was 1010 nM; against Beta-lactamase OXA-1, 8120 nM; against Beta-lactamase TEM, 101 nM.
For `Cn1cnnc1SC[C@@]1(C)[C@H](C(=O)O)N2C(=O)C[C@H]2S1(=O)=O`, the IC50 on Beta-lactamase BRO-1 was 2.89 nM; against Beta-lactamase SHV-1, 577 nM; against Beta-lactamase TEM, 72.2 nM.
Regarding `C[C@@]1(CSc2nc3ccccc3o2)S[C@@H]2[C@H](Br)C(=O)N2[C@H]1C(=O)O`, the IC50 against Beta-lactamase [1] is 116 nM; against Beta-lactamase [2], 18400 nM; against Beta-lactamase [3], 1160 nM; against Beta-lactamase SHV-1, 147 nM; at Beta-lactamase TEM, 30.3 nM; against Beta-lactamase [4] it was 14700 nM.
In the case of `C[C@]1(CSC2=NCCS2)[C@H](C(=O)O)N2C(=O)C[C@H]2S1(=O)=O`, the IC50 on Beta-lactamase BRO-1 was 2.85 nM; against Beta-lactamase SHV-1, 371 nM; on Beta-lactamase OXA-1, 114 nM; on Beta-lactamase TEM, 22.8 nM.
In the case of `C[C@]1(CSc2nc3ccccc3[nH]2)[C@H](C(=O)O)N2C(=O)C[C@H]2S1(=O)=O`, the IC50 on Beta-lactamase SHV-1 was 655 nM; against Beta-lactamase TEM, 65.5 nM.
Turning to `Cn1ccnc1SC[C@]1(C)S[C@@H]2[C@H](Br)C(=O)N2[C@H]1C(=O)O`, the IC50 against Beta-lactamase BRO-1 was 63.7 nM; at Beta-lactamase SHV-1, 51 nM; at Beta-lactamase OXA-1 it was 10200 nM; on Beta-lactamase TEM, 15.3 nM.
As to `O=C(O)[C@H]1/C(=C/CO)O[C@@H]2CC(=O)N21` [CLAVULANIC ACID], the IC50 against Beta-lactamase BRO-1 is 30.1 nM.
For `CC1(C)[C@H](C(=O)O)N2C(=O)C[C@H]2S1(=O)=O` [SULBACTAM], the half-maximal inhibitory concentration (IC50) against Beta-lactamase SHV-1 was 1710 nM; on Beta-lactamase OXA-1 it was 1370 nM.
Consider `C[C@]1(Cn2ccnn2)[C@H](C(=O)O)N2C(=O)C[C@H]2S1(=O)=O` [TAZOBACTAM], for which the values for the IC50 on Beta-lactamase BRO-1 and on Beta-lactamase SHV-1 were 33.3 nM and 133 nM, respectively.
